Laboratory results: ChEMBL document CHEMBL5053468, “Aromatic ring compound as ghrelin o-acyltransferase inhibitor” (2017)

Target: T1, Membrane-bound ghrelin O-acyltransferase MBOAT4 (Homo sapiens) (UniProt Q96T53)
T1 sequence (whole entry): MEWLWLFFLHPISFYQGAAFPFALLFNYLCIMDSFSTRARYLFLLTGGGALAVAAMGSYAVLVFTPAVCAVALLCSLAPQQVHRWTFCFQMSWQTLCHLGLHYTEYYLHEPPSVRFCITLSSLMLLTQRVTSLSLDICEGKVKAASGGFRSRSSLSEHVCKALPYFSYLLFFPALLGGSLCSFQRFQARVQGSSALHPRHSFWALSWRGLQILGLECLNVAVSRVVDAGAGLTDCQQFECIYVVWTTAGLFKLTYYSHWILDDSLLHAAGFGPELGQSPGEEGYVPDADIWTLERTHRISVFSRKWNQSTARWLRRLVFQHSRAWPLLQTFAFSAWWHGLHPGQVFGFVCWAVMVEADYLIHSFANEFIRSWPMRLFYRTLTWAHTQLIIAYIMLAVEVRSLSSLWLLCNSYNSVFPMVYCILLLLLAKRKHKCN
Experiment: Inhibition of human GOAT expressed in baculovirus infected Sf9 cells at 10 uM using octanoyl-CoA and ghrelin-biotin as substrate preincubated for 20 mins followed by substrate addition and measured after = > 1 hr by HTRF assay relative to control
Conditions: time hrs >=1

| inhibition [%] | SMILES |
| --- | --- |
| 93.1 | Cc1nc(C(F)(F)F)ccc1COc1ccc2c(CC(=O)O)csc2c1 |
| 79 | O=C(O)CC1CS(=O)(=O)c2cc(OCc3ccc(Cl)cc3Cl)ccc21 (stereo not given) |
| 93 | O=C(O)C[C@@H]1COc2cc(OCc3ccc(Cl)cc3Cl)ccc21 |
| 96.5 | COC(=O)Cc1csc2cc(OCc3ccc(C)nc3C)cc(Cl)c12 |
| 105 | Cc1cc(COc2cc(Cl)c3c(CC(=O)O)csc3c2)n(C)n1 |
| 69 | CCOC(=O)Cc1csc2cc(OCc3ccc(Cl)cc3Cl)ccc12 |
| 56 | CCOC(=O)CNC(=O)Cc1csc2cc(OCc3ccc(Cl)cc3Cl)ccc12 |
| 98.2 | Cn1nc(C(F)(F)F)cc1COc1ccc2c(CC(=O)O)csc2c1 |
| 67 | O=C(O)Cc1csc2cc([S+]([O-])Cc3ccc(Cl)cc3Cl)ccc12 (stereo not given) |
| 92.8 | CCOC(=O)Cc1csc2cc(OCc3ccc(C)nc3C)ccc12 |
| 97.3 | Cc1nc(C(F)(F)F)ncc1COc1ccc2c(CC(=O)O)csc2c1 |
| 73 | CC(=O)NCCc1coc2cc(OCc3ccc(Cl)cc3Cl)ccc12 |
| 106 | Cc1nc(C(F)(F)F)ccc1COc1cc(Cl)c2c(CC(=O)O)csc2c1Cl |
| 68.7 | COC(=O)Cc1coc2c(C)c(OCc3ccc(Cl)cc3Cl)cc(C)c12 |
| 101 | Cc1nc(C(F)(F)F)ccc1COc1cc(Cl)c2c(CC(=O)O)csc2c1 |
| 103 | Cc1nc(C(F)(F)F)ccc1COc1cc(Cl)c2c(CC(=O)O)c(C)sc2c1 |
| 103 | Cc1cc(OCc2ccc(Cl)cc2Cl)cc2scc(CC(=O)O)c12 |
| 99.3 | O=C(O)Cc1csc2cc(SCc3ccc(Cl)cc3Cl)ccc12 |
| 85 | COCC1(C(=O)O)COc2cc(OCc3ccc(Cl)cc3Cl)ccc21 (stereo not given) |

| inhibition [%] | SMILES |
| --- | --- |
| 107 | Cc1ccc(COc2cc(Cl)c3c(CC(=O)O)csc3c2)c(C)n1 |
| 81 | O=C(O)C1(CO)COc2cc(OCc3ccc(Cl)cc3Cl)ccc21 (stereo not given) |
| 69 | CC(=O)NCC[C@@H]1COc2cc(OCc3ccc(Cl)cc3Cl)ccc21 |
| 99.2 | O=C(O)Cc1csc2cc(OCc3ccc(Cl)cc3Cl)ccc12 |
| 97 | O=C(Cc1csc2cc(OCc3ccc(Cl)cc3Cl)ccc12)NC(CO)C(=O)O (stereo not given) |
| 95 | O=C(O)CNC(=O)Cc1csc2cc(OCc3ccc(Cl)cc3Cl)ccc12 |
| 99 | Cc1ccc(COc2ccc3c(CC(=O)O)csc3c2)c(C)n1 |
| 103 | Cc1c(OCc2ccc(Cl)cc2Cl)cc(C)c2c(CC(=O)O)coc12 |
| 83.2 | CCS(=O)(=O)NC(=O)Cc1csc2cc(OCc3ccc(Cl)cc3Cl)ccc12 |
| 100 | O=C(O)Cc1coc2c(Cl)c(OCc3ccc(Cl)cc3Cl)ccc12 |
| 102 | Cc1nc(C(F)(F)F)ccc1COc1cc(F)c2c(CC(=O)O)csc2c1 |
| 83 | O=C(O)Cc1csc2cc(S(=O)(=O)Cc3ccc(Cl)cc3Cl)ccc12 |
| 94.8 | Cc1ccc(COc2cc(C)c3c(c2C)OCC3CC(=O)O)c(C)n1 (stereo not given) |
| 59 | CCC(=O)NCC[C@@H]1COc2cc(OCc3ccc(Cl)cc3Cl)ccc21 |
| 99 | O=C(O)CC1CSc2cc(OCc3ccc(Cl)cc3Cl)ccc21 (stereo not given) |
| 86 | COC(=O)C(CO)NC(=O)Cc1csc2cc(OCc3ccc(Cl)cc3Cl)ccc12 (stereo not given) |
| 96.2 | Cc1cc(OCc2ccc(Cl)cc2Cl)c(C)c2c1C(CC(=O)O)CO2 (stereo not given) |
| 86 | O=C(O)C[C@H]1COc2cc(OCc3ccc(Cl)cc3Cl)ccc21 |
| 84.4 | COC(=O)Cc1csc2cc(OCc3ccc(Cl)cc3Cl)cc(C)c12 |

More lines, now with the values behind:

| SMILES | inhibition [%] |
| --- | --- |
| Cc1cc(COc2cc(C)c3c(CC(=O)O)csc3c2)n(C)n1 | 95.6 |
| Cc1nc(C(F)(F)F)ccc1COc1cc(C)c2c(CC(=O)O)csc2c1 | 99.2 |
| Cc1ccc(/C=C/c2ccc3c(CC(=O)O)csc3c2)c(C)n1 | 83.1 |
| COC(=O)Cc1csc2cc(OCc3cc(C)nn3C)cc(Cl)c12 | 97.4 |
| COC(=O)Cc1coc2c(C)c(OCc3ccc(C)nc3C)cc(C)c12 | 92.7 |
| COC(=O)Cc1csc2cc(OCc3ccc(C(F)(F)F)nc3C)cc(C)c12 | 93.8 |
| COC(=O)Cc1csc2c(Cl)c(OCc3ccc(C(F)(F)F)nc3C)cc(Cl)c12 | 88.1 |
| COC(=O)Cc1csc2cc(OCc3cc(C(F)(F)F)nn3C)cc(C)c12 | 95.2 |
| COC(=O)Cc1c(C)sc2cc(OCc3ccc(C(F)(F)F)nc3C)cc(Cl)c12 | 51.5 |
| Cc1nc(C(F)(F)F)ccc1COc1cc(C)c2c(CC(=O)O)csc2c1C | 105 |
| Cn1nc(C(F)(F)F)cc1COc1cc(Cl)c2c(CC(=O)O)csc2c1F | 107 |
| Cn1nc(C(F)(F)F)cc1COc1cc(Cl)c2c(CC(=O)O)csc2c1Cl | 105 |
| Cc1nc(C(F)(F)F)ccc1COc1cc(Cl)c2c(CC(=O)O)csc2c1F | 106 |
| Cc1sc2cc(OCc3cc(C(F)(F)F)nn3C)cc(Cl)c2c1CC(=O)O | 106 |
| COC(=O)Cc1csc2c(F)c(OCc3ccc(C(F)(F)F)nc3C)cc(C)c12 | 94 |
| COC(=O)Cc1csc2cc(OCc3cc(C)nn3C)cc(C)c12 | 94.7 |
| Cc1ccc(COc2cc(C)c3c(CC(=O)O)coc3c2C)c(C)n1 | 102 |
| COC(=O)Cc1csc2c(Cl)c(OCc3cc(C(F)(F)F)nn3C)cc(Cl)c12 | 92.7 |
| COC(=O)Cc1csc2cc(OCc3cc(C(F)(F)F)nn3C)cc(Cl)c12 | 100 |

| SMILES | inhibition [%] |
| --- | --- |
| Cn1nc(C(F)(F)F)cc1COc1cc(Cl)c2c(CC(=O)O)csc2c1 | 105 |
| Cc1cc(OCc2cc(C(F)(F)F)nn2C)c(F)c2scc(CC(=O)O)c12 | 104 |
| COC(=O)Cc1csc2c(F)c(OCc3cc(C(F)(F)F)nn3C)cc(Cl)c12 | 98.9 |
| Cc1nc(C(F)(F)F)ccc1COc1cc(C)c2c(CC(=O)O)csc2c1F | 106 |
| Cc1nc(C(F)(F)F)ncc1COc1cc(C)c2c(CC(=O)O)csc2c1 | 100 |
| COC(=O)Cc1c(C)sc2cc(OCc3cc(C(F)(F)F)nn3C)cc(Cl)c12 | 99.5 |
| Cn1nc(C(F)(F)F)cc1COc1cc(F)c2c(CC(=O)O)csc2c1 | 104 |
| COC(=O)Cc1csc2c(F)c(OCc3cc(C(F)(F)F)nn3C)cc(C)c12 | 96.1 |
| CCOC(=O)Cc1csc2cc(OCc3cc(C(F)(F)F)nn3C)ccc12 | 88.9 |
| Cn1nc(C(F)(F)F)cc1COc1cc(C(F)(F)F)c2c(CC(=O)O)csc2c1 | 103 |
| COC(=O)Cc1csc2c(C)c(OCc3ccc(C(F)(F)F)nc3C)cc(C)c12 | 62.8 |
| COC(=O)Cc1csc2c(F)c(OCc3ccc(C(F)(F)F)nc3C)cc(Cl)c12 | 88.6 |
| COC(=O)Cc1csc2cc(OCc3ccc(C(F)(F)F)nc3C)cc(Cl)c12 | 91.6 |
| Cc1ccc(CCc2ccc3c(CC(=O)O)csc3c2)c(C)n1 | 97.3 |
| COC(=O)Cc1csc2cc(OCc3ccc(C(F)(F)F)nc3C)cc(F)c12 | 94.9 |
| Cc1ccc(COc2cc(C(F)(F)F)c3c(CC(=O)O)csc3c2)c(C)n1 | 103 |
| Cc1cc(OCc2cc(C(F)(F)F)nn2C)cc2scc(CC(=O)O)c12 | 104 |
| COC(=O)Cc1csc2cc(OCc3cc(C(F)(F)F)nn3C)cc(F)c12 | 99.9 |
